This is an account of results in patent US8192962B2, “Processes for detecting toxic substances” (Daikin Industries, Ltd., priority 2001, dated 2012).

The subject of this test is Mitochondria-located protein genes. As to the kind of experiment: DNA chip mRNA expression in yeast, mitochondria-located protein genes (Table 2). Type of test: cell-based, Saccharomyces cerevisiae S288C. As to conditions: cells incubated two hours with the chemical substance. In a few lines:
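First, S288C yeast grown in YPD at 25° C. are dosed in log phase with one toxicant (growth-inhibiting, not lethal) for 2 h. Next, total RNA is extracted and poly(A) mRNA isolated and reverse-transcribed with Cy3/Cy5-dUTP. Finally, whole-genome chip fluorescence is read relative to unexposed cells.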

On to `C[S+](C)[O-]` [(15), dimethylsulfoxide], for which the “The level of expressed mRNA in the presence of chemical substance/The level of expressed mRNA in the absence of chemical substance” value runs as follows: (yeast gene YBR029C) 3.5; (yeast gene YBR291C) 0.5; (yeast gene YDR529C) 0.5; (yeast gene YEL039C) 0.4; (yeast gene YGR029W) 0.4; (yeast gene YGR062C) 0.5. Besides, the “The level of expressed mRNA in the presence of chemical substance/The level of expressed mRNA in the absence of chemical substance” value is listed as 0.5 (yeast gene YGR076C); 2.9 (yeast gene YIL022W); 0.5 (yeast gene YIL094C); 0.5 (yeast gene YJL166W); 0.5 (yeast gene YKL085W); 0.8 (yeast gene YKL170W). Further, the “The level of expressed mRNA in the presence of chemical substance/The level of expressed mRNA in the absence of chemical substance” value is recorded as 0.8 (yeast gene YKL194C); 0.5 (yeast gene YKR052C); 0.4 (yeast gene YLL041C); 0.5 (yeast gene YLR295C); 0.4 (yeast gene YLR395C); 1.3 (yeast gene YML110C). Besides, the “The level of expressed mRNA in the presence of chemical substance/The level of expressed mRNA in the absence of chemical substance” value (yeast gene YML120C) amounted to 0.5, the “The level of expressed mRNA in the presence of chemical substance/The level of expressed mRNA in the absence of chemical substance” value (yeast gene YOR037W) is 0.9 and the “The level of expressed mRNA in the presence of chemical substance/The level of expressed mRNA in the absence of chemical substance” value (yeast gene YOR374W) came out at 2.5.
